Reference: patent US20240216395A1, “19-NOR C3,3-DISUBSTITUTED C21 -N-PYRAZOLYL STEROID FOR USE IN TREATING MAJOR DEPRESSIVE DISORDER AND […]” (priority 2021, published 2024)

Experiments:
Type in all cases: in vivo, human
[1] = system: adult female subjects with severe postpartum depression (PPD); test: Phase 3 placebo-controlled study of Compound (1) 30 mg QD for 14 days in PPD (NCT02978326, ROBIN): efficacy and post hoc analyses
Method: Example 4. A Multicenter, Randomized, Double-Blind, Parallel-Group, Placebo-Controlled Study Evaluating the Efficacy, Safety, and Pharmacokinetics of Compound (1) in the Treatment of Adult Female Subjects with Severe Postpartum Depression
This was a multicenter, randomized, double-blind, parallel-group, placebo-controlled study of the efficacy, safety, and pharmacokinetics of Compound (1) in adult subjects diagnosed with severe PPD.
Randomized subjects received 30 mg QD of study drug (Compound (1) Capsules or placebo). Those subjects who could not tolerate 30 mg QD will received 20 mg QD for the remainder of the Treatment Period. Subjects who experienced intolerable adverse events (AEs) at the 20 mg QD dose level could be discontinued from study treatment at the discretion of the Investigator. Subjects were instructed to take the study drug with food. Study drug was self-administered by subjects in the evening (8:00 pm±30 min) on an outpatient basis for the entire 14-day Treatment Period. Study drug administration was monitored via a follow-up call from the site each evening (within approximately 1 hour following the scheduled evening dose) on Days 1 to 14.
The primary efficacy endpoint was the change from baseline in HAM-D total score at the end of the Treatment Period (Day 15). The HAM-D total score was calculated as the sum of the 17 individual item scores.
Secondary endpoints included: • Change from baseline in the HAM-D total score at all time points other than Day 15; • HAM-D Response defined as a 50% or greater reduction from baseline in HAM-D total score; • HAM-D Remission defined as a HAM-D total score of ≤7; • Change from baseline in MADRS total score at Day 15 and other time points; • CGI-I Response defined as “very much improved” or “much improved”; • Change from baseline in HAM-A total score at Day 15 and other time points; • Changes from baseline in HAM-D subscales and individual item scores at Day 15 and other time points
The change from baseline in HAM-D total score was analyzed using a mixed effects model for repeated measures (MMRM); the model included center, treatment, baseline HAM-D total score, assessment time point, and time point-by-treatment as explanatory variables. All post-baseline time points were included in the model. The primary comparison was between Compound (1) and placebo at the 15-day time point. Model-based point estimates (e.g., least squares [LS] means), 95% confidence intervals, and p-values were reported. An unstructured covariance structure was used to model the within-subject errors. Continuous secondary and other variables were analyzed using similar methods.
Binary efficacy endpoints, including responder and remission endpoints, were summarized and analyzed using the generalized estimating equation method.
As indicated in Example 4, women (N=151), ages 18-45, ≤6 months postpartum, diagnosed with PPD (defined as a major depressive episode with onset in the 3rd trimester or ≤4 weeks postpartum), and a baseline HAMD-17 total score ≥26, were randomized to study drug in an outpatient setting.
Patients were randomized 1:1 to receive oral Compound (1) 30 mg or placebo once daily for 14 days, with 4 weeks follow-up. The change from baseline (CFB) vs placebo in HAMD-17 at Day 15 was the primary endpoint. Treatment emergent adverse events (TEAEs) were assessed throughout the study.
Post hoc analyses explored concurrent anxiety and depression improvement using a combination of scales at Days 15 and 45: (1) HAMD-17≤7+HAM-A≤7, or (2) MADRS ≤10+HAM-A≤7. Depression improvement was defined as either a HAMD-17 total score ≤7, or a MADRS total score […]. Improvement in anxiety symptoms was defined as a HAM-A total score ≤7.
CFB in HAMD-17 total score was evaluated using the least-squares mean from a mixed effect model for repeated measures. […]

[2] = system: patients with MDD; test: Phase 3 clinical trial of Compound (1) 30 mg in MDD : TEAEs; details: previous Phase 3 clinical trial
Description: The study design and results, if applicable, of the clinical trials identified by the NCT numbers are each incorporated by reference herein in its entirety.
(§1) The majority of patients receiving Compound (1) and experiencing a TEAE reported TEAEs mild and moderate in severity: clinical trial of Example 4 94%, Phase 2 clinical trial conducted by Applicant 100%, previous Phase 3 clinical trial conducted by Applicant 98%, and clinical trial of Example 1 95.0%.

[3] = system: patients with PPD or MDD; test: Most common TEAEs across clinical trials in PPD or MDD: overall ranges; details: 30 or 50 mg (N = 583)
Description: as §1

C[C@@]1(O)CC[C@H]2[C@H](CC[C@@H]3[C@@H]2CC[C@]2(C)[C@@H](C(=O)Cn4cc(C#N)cn4)CC[C@@H]32)C1 [Compound (1), 1-(2-((3R,5R,8R,9R,10S,13S,14S,17S)-3-hydroxy-3,13-dimethylhexadecahydro-1H-cyclopenta[a]phenanthren-17-yl)-2-oxoethyl)-1H-pyrazole-4-carbonitrile]
HAMD-17 early insomnia item mean reduction from baseline [1]: −1.3 | HAMD-17 late insomnia item mean reduction from baseline [1]: −1.3 | HAMD-17 middle insomnia item mean reduction from baseline [1]: −1.3 | EPDS-3A least square mean CFB ([1]; Day 8): −2.2 | Concurrent improvement HAMD-17 ≤ 7 and HAM-A ≤ 7, OR (95% CI) vs placebo ([1]; Day 15): 2.75 (1.30, 5.84) | Concurrent improvement MADRS ≤ 10 and HAM-A ≤ 7, OR (95% CI) vs placebo ([1]; Day 15): 2.35 (1.15, 4.80) | LS mean difference vs placebo (as printed after HAMD-17 CFB) ([1]; Day 15): −2.4 | MADRS Remission rate ([1]; Day 15): 54.1% | MADRS Response rate ([1]; Day 15): 73.0% | HAMD-17 total score CFB ([1]; Day 15 (primary endpoint)): −17.8 | Concurrent improvement HAMD-17 ≤ 7 and HAM-A ≤ 7, OR (95% CI) vs placebo ([1]; Day 45): 3.45 (1.66, 7.16) | Concurrent improvement MADRS ≤ 10 and HAM-A ≤ 7, OR (95% CI) vs placebo ([1]; Day 45): 3.09 (1.50, 6.36) | EPDS-3A least square mean CFB ([1]; Day 45): −3.6 | HAM-A Remission rate ([1]; day 3): 27.0% | HAMD-17-Ins CFB, Compound (1)-placebo difference ([1]; day 3): −0.841 | HAMD-17 A/S least squares mean CFB ([1]; day 3): −3.8 | HAM-A Response rate ([1]; day 8): 69.3% | EPDS remission (<13) rate ([1]; day 15): 64% | HAMD-17 A/S Response rate ([1]; day 15): 68.9% | HAMD-17 Remission rate ([1]; day 15): 45% | HAMD-17 Response rate ([1]; day 15): 72% | NNT for EPDS remission <13 ([1]; day 15): 6 | NNT, rapid outcomes ([1]; day 15): 5 | HAMD-17 A/S least squares mean CFB ([1]; day 45): −5.7 | NNT, sustained outcomes ([1]; day 45): 5 | PHQ-9 total score least squares mean decrease ([1]; day 45): −11.8 | SF-36v2 domains (SF, MH, PF, RP, BP) and MCS vs placebo ([1]; day 45): statistically significant improvements | Sustained HAMD-17 Remission rate ([1]; days 15 and 45): 37% | Sustained HAMD-17 Response rate ([1]; days 15 and 45): 59% | Patients with a TEAE whose TEAEs were mild and moderate in severity [2]: 98% | Any TEAE, overall range across trials [3]: 53.3-60.3% | Diarrhea, overall range across trials [3]: 0-6.4% | Dizziness, overall range across trials [3]: 5.7-13.8% | Fatigue, overall range across trials [3]: 1.1-6.8% | Headache, overall range across trials [3]: 6.3-17.8% | Nausea, overall range across trials [3]: 3.6-11.1% | Sedation, overall range across trials [3]: 4.4-7.5% | Somnolence, overall range across trials [3]: 6.7-15.4% | URTI, overall range across trials [3]: 0-7.7%
